This is an account of results in US20200261534A1, “NEW TREATMENTS OF MULTIPLE MYELOMA” (priority 2017, published 2020).

In assay [1] the test system is MM1R, lymphoblast (myeloma), resistant to Dexamethasone. The protocol: MM1R, lymphoblast, (myeloma), ATCC® CRL-2975™, resistant to Dexamethasone
(§1) All cell lines were cultured in incubator at 37° C. in RPMI-1640 (Sigma R8758) medium with 10% of fetal bovine serum inactivated (FBS) and 2 mM glutamine (Sigma G7513). During the amplification step cells were centrifuged and transferred into the culturing medium. Cells were counted in a Neubauer chamber after labelling with Tripan-Blue.
(§2) Cells were seeded at a density of 10000 cells/well in 100 μl of medium in 96 well plates. After 24 h, the compounds to be tested were added to calculate the dose/response curve at the starting concentration of 100 μM with serial dilutions (1:1). Controls are the untreated cells. Each experiment was performed in triplicate.
(§3) Cells were incubated with the peptidomimetic compound (S09) at the indicated concentrations during 24-72 h in incubator under CO2 atmosphere at 37° C. Then, cell viability was measured by means of MTT (3-(4,5-dimethylthiazol-2-yl)-2,5-diphenyltetrazolium bromide) assay. Stock solution of MTT (475989 Calbiochem) was 5 mg/ml in PBS. 1×.10 μl/well of MTT solution were added and the plate was incubated for 3-4 hr. The medium was discarded and 100 μl of extracting buffer (PBS 1×, 15% SDS, 50% […] N,N-Dimethylformamide, pH 4.7) were added to each well. Plates were incubated for 16 h at room temperature under orbital shaking. Absorbance at 570 nm was finally measured. As negative control (experiment noise) 3 wells were treated with 20 μl/well of a solution of SDS 10% in H2O.
(§4) Data analysis was performed calculating the percentage of cell viability normalized vs. the values of negative control, which was considered equal to 100%. The dose/response curve was fitted through the sigmoidal equation dose-response (variable slope) and the IC50 values were calculated as follow:
(§5) Y=Bottom+(Top−Bottom)/(1+10^{[(LogIC50−X)*HillSlope]},
(§6) All cell lines were cultured in incubator at 37° C. in RPMI-1640 (Sigma R8758) medium with 10% of fetal bovine serum inactivated (FBS) and 2 mM glutamine (Sigma G7513).
(§7) Cells were seeded at a density of 10,000 cells/well in 100 μl of medium in 96 well plates. After 24 h, the compounds to be tested were added to calculate the dose/response curve at the starting concentration of 40 μM with serial dilutions (1:1). Controls are the untreated cells. Each experiment was performed in triplicate.
as §3, with “compounds” for “compound (S09)”

The test system of assay [2] is U266DOX4, lymphoblast (myeloma), selected for resistance to Doxorubicin. In kind it is cell-based. The method, then: U266DOX4, lymphoblast (myeloma), selected for resistance to Doxorubicin (Alvarez-Fernández et al. Clin Cancer Res. 2013 May 15; 19(10):2677-87).
as §1, §2, §3, §4, §5
U266DOX4, lymphoblast (myeloma), selected for resistance to Doxorubicin (Alvarez-Fernandez et al. Clin Cancer Res. 2013 May 15; 19(10):2677-87).
as §6
Cells were seeded at a density of 10,000 cells/well in 100 μl of medium in 96 well plates. After 24 h, the compounds to be tested were added to calculate the dose/response curve at the starting concentration of 40 μM with serial dilutions (1:1). […]
Cells were incubated with the peptidomimetic compounds at the indicated concentrations during 24-72 h in incubator under CO2 atmosphere at 37° C. Then, cell viability was measured by means of MTT (3-(4,5-dimethylthiazol-2-yl)-2,5-diphenyltetrazolium bromide) assay. […] Absorbance at 570 nm was finally measured. […]

Assay [3] concerns RPMI-8266, lymphoblast (myeloma). The assay is described as follows: MTT viability assay, RPMI-8266. In kind it is cell-based. The protocol: RPMI-8266, lymphoblast (myeloma), ATCC® CCL155™
as §1, §2, §3, §4, §5, §6, §7
as §3, with “compounds” for “compound (S09)”
Background: Formazan colour is commonly taken as a measure of viable cells.

In assay [4] the test system is HL-60, promyeloblast (acute myelocytic leukemia, AML). The assay is described as follows: MTT viability assay, HL-60. In kind it is cell-based. The method, then: HL-60, promyeloblast (acute myelocytic leukemia, AML), ECACC: 98070106 […] During the amplification step and the assays adherent cells were rinsed with DPBS (Dulbecco's Phosphate Buffered Saline, Sigma D1283) three times and afterward treated for 5 minutes with trypsin ([…]) (Gibco-BRL, 15400054) in solution of DPBS at 37° C., and, once detached, transferred in the culturing medium. No-adherent cells were centrifuged and transferred in the culturing medium. Cells were counted in a Neubauer chamber after labelling with Tripan-Blue. […] Cells were seeded at a density of 10000 cells/well in 100 μl of medium in 96 well plates. […] Controls are the untreated cells. Each experiment was performed in triplicate. Cells were incubated with the compounds at the indicated concentrations during 24-72 h in incubator under CO2 atmosphere at 37° C. […] Stock solution of MTT (475989 Calbiochem) was 5 mg/ml in PBS. 1×.10 μl/well of MTT solution were added and the plate was incubated for 3-4 hr. […] Plates were incubated for 16 h at room temperature under orbital shaking. Absorbance at 570 nm was finally measured. […] The dose/response curve was fitted through the sigmoidal equation dose-response (variable slope) and the IC50 values were calculated as follow: Y=Bottom+(Top−Bottom)/(1+10^{[(LogIC50−X)*HillSlope]},

The mark [5] stands for this setting: U266DOX4, 72 hr, Table 14, read-out: IC50 after 72 hr values.

Read-outs that look alike come from different tables or passages of the source. Starred links: 1 amine or outer side, 2 acyl side, 3 side chain; linkers in the order of their positions; H or OH if unused. Positions of bridges follow the written chain, without caps; N, C: chain ends. Non-standard residues stand in square brackets, D forms with d. Residues, ends and D or L forms follow the SMILES beside them. ξ: configuration not given here. ξαMeNle(6-ylidene) = CC(CCCC=[*:3])(N[*:1])C(=O)[*:2]; X1 = CC(CCCCCCC=[*:3])(N[*:1])C(=O)[*:2]; Octanediyl(1,8) = C(CCCC[*:2])CCC[*:1]; ξC = NC(CS)C(=O)O

Turning to `CC[C@H](C)[C@H](NC(=O)[C@H](Cc1ccc(O)cc1)NC(=O)[C@H](C)NC(=O)C1(C)CCCC=CCCCCCCC(C)(NC(=O)[C@H](CCCCN)NC(=O)[C@@H]2CCCN2C(=O)[C@H](C)N)C(=O)N[C@@H](C(C)C)C(=O)N[C@@H]([C@@H](C)CC)C(=O)N[C@@H](Cc2ccccc2)C(=O)N[C@@H](CCCCN)C(=O)N[C@@H](CCCCN)C(=O)N[C@@H](C)C(=O)N1)C(=O)N[C@@H](CC(C)C)C(=O)N[C@@H](CO)C(=O)O` (some centres unmarked) [S14, APKXVIFKKAXAYILS—OH] (H-APK[X1]VIFKKA[ξαMeNle(6-ylidene)]AYILS-OH; staple 4-11; N-terminus assumed), the IC50 – broadly, the midpoint of a concentration-inhibition curve – turned out to be 15 µM in assay [1] (24 h); 15 µM in assay [1] (72 h); 15 µM in assay [2] (U266DOX4, 24 hr, Table 13, read-out: IC50 after 24 hr values); 15 µM in assay [2] (setting [5]); 10 µM in assay [3] (24 h); 10 µM in assay [3] (72 h). In addition, in assay [4], the IC50 worked out at 7.8 ± 0.4 µM.

`CC[C@H](C)[C@H](NC(=O)[C@H](Cc1ccc(O)cc1)NC(=O)[C@H](C)NC(=O)C1CSCCCCCCCCSCC(NC(=O)[C@H](CCCCN)NC(=O)[C@@H]2CCCN2C(=O)[C@H](C)N)C(=O)N[C@@H](C(C)C)C(=O)N[C@@H]([C@@H](C)CC)C(=O)N[C@@H](CC(C)C)C(=O)N[C@@H](CCCCN)C(=O)N[C@@H](CCCCN)C(=O)N[C@@H](C)C(=O)N1)C(=O)N[C@@H](CC(C)C)C(=O)N[C@@H](CO)C(=O)O` (some centres unmarked) [IDP-P1708160] (H-APK[ξC]VILKKA[ξC]AYILS-OH; linker 4-11 via Octanediyl(1,8); N-terminus and C-terminus assumed): the half-maximal inhibitory concentration (IC50) in assay [1] (24 h) was 15 µM; in assay [1] (72 h), 10 µM; in assay [2] (setting [5]), 7.5 µM; in assay [3] (24 h), 15 µM; in assay [3] (72 h) it was 15 µM.

Turning to `CC[C@H](C)[C@H](NC(=O)[C@H](Cc1ccc(O)cc1)NC(=O)[C@H](C)NC(=O)C1(C)CCCC=CCCCCCCC(C)(NC(=O)[C@H](CCCCN)NC(=O)[C@@H]2CCCN2C(=O)[C@H](C)N)C(=O)N[C@@H](C(C)C)C(=O)N[C@@H]([C@@H](C)CC)C(=O)N[C@@H](CC(C)C)C(=O)N[C@@H](CCCCN)C(=O)N[C@@H](CCCCN)C(=O)N[C@@H](C)C(=O)N1)C(=O)N[C@@H](CC(C)C)C(=O)N[C@@H](CO)C(=O)O` (some centres unmarked) [S09, APKXVILKKAXAYILS—OH] (H-APK[X1]VILKKA[ξαMeNle(6-ylidene)]AYILS-OH; staple 4-11; N-terminus assumed), the IC50 in assay [1] (read-out: IC50 values in μM for S09, MM1R (resistant to Dexamethasone), MTT, 24-72 h, Table 7) was 8.3 µM; in assay [2] (U266DOX4 (resistant to Doxorubicin), MTT, 24-72 h, Table 7, read-out: IC50 values in μM for S09) it was 5 µM; in assay [3] (RPMI, MTT, 24-72 h, Table 7, read-out: IC50 values in μM for S09) it was 7.4 µM; in assay [4] (HL-60, MTT, incubation 24-72 h, Table 3, read-out: IC50 values) it was 3.5 ± 0.2 µM; in assay [4] (HL-60, same protocol as Example 2, Table 6, read-out: Compound (IC50)) it was 3.5 ± 0.2 µM.
